Data published in US4551450A, “Rifamycin hydrazones, pharmaceutical compositions containing them and their use” (Ciba-Geigy Corporation, priority 1984, dated 1985).
Converted amounts (≈) assume the structure as drawn. Like-named read-outs stand apart in the source and are kept apart here.

Columns and labels:
Pharmacokinetics in mice = format: in vivo; settings: for half-life / Cmax: mouse; for half-life: read-out: t/2 (half-life period of excretion) (converted); for Cmax / Cmax (highest concentration of the active ingredient in the blood plasma): blood plasma; for Cmax: read-out: Cmax (highest concentration of the active ingredient in the blood plasma)
Description: (§1) (5) Half-life period of excretion (in hours).
(§2) (6) Highest concentration of the active ingredient in the blood plasma.

[1] = system: Mycobacterium tuberculosis TB H3 Rv; experiment: Antituberculotic action, in vivo test (mice), administration p.o.; parameters: species or system Mycobacterium tuberculosis; mice; settings: for ED50: Mycobacterium tuberculosis, TBH3RV, po
Description: (§3) (2) Test organism: Mycobacterium tuberculosis TB H3 Rv
(4) In vivo test (mice); administration p.o.

[2] = system: Mycobacterium tuberculosis TB H3 Rv; experiment: Antituberculotic action, minimum inhibitory concentration in a plate test in vitro; format: cell-based; settings: M. tuberculosis TB H3 Rv; for Antituberculotic action, MIC (minimum inhibitory concentration): plate test in vitro; for MIC: Mycobacterium tuberculosis, TBH3RV, read-out: Antituberculotic action, MIC (minimum inhibitory concentration), plate test in vitro
Description: as §3
(3) Minimum inhibitory concentration in a plate test in vitro.

Pharmacokinetics in rats = format: in vivo; settings: rat
Description: as §1, §2

[3] = in vivo, mice, p.o., read-out: Antituberculotic action, ED50

## CCC1CCC2CN(N=Cc3c4c(O)c5c(O)c(C)c6c(c5c3O)C(=O)[C@@](C)(O/C=C/[C@H](OC)[C@@H](C)[C@@H](OC(C)=O)[C@H](C)[C@H](O)[C@H](C)[C@@H](O)[C@@H](C)/C=C/C=C(/C)C(=O)N4)O6)CCN2C1 (single isomer, unassigned) [Example 4 Isomer A, hydrazone of 3-formylrifamycin SV with 3-amino-7-ethylperhydro-1H-pyrido[1,2-a]pyrazine]
Pharmacokinetics in mice; in vivo
  half-life: 55.1 h
Pharmacokinetics in mice; plasma
  Cmax: 29.5 µg/mL
[1]; [3]
  ED50: 0.8 mg/kg
[2]; listed as 4 Isomer A
  Antituberculotic action, MIC (minimum inhibitory concentration): 0.01 mg/L

## CCC1CCC2CN(N=Cc3c4c(O)c5c(O)c(C)c6c(c5c3O)C(=O)[C@@](C)(O/C=C/[C@H](OC)[C@@H](C)[C@@H](OC(C)=O)[C@H](C)[C@H](O)[C@H](C)[C@@H](O)[C@@H](C)/C=C/C=C(/C)C(=O)N4)O6)CCN2C1 (single isomer, unassigned) [Example 4 Isomer B, hydrazone of 3-formylrifamycin SV with 3-amino-7-ethylperhydro-1H-pyrido[1,2-a]pyrazine]
Pharmacokinetics in mice
  t/2 (half-life period of excretion): 44.6 h
  Cmax (highest concentration of the active ingredient in the blood plasma): 26.4 µg/mL
[1]; in vivo, mice, p.o.
  Antituberculotic action, ED50: 1 mg/kg
[2]; listed as 4 Isomer B
  Antituberculotic action, MIC (minimum inhibitory concentration): 0.03 mg/L

## COC1C=COC2(C)Oc3c(C)c(O)c4c(O)c(c(C=NN5CC6CCCCN6CC5C)c(O)c4c3C2=O)NC(=O)C(C)=CC=CC(C)C(O)C(C)C(O)C(C)C(OC(C)=O)C1C (single isomer, unassigned) [Example 5 Isomer A, hydrazone of 3-formylrifamycin SV with 3-amino-2-methylperhydro-1H-pyrido[1,2-a]pyrazine]
Pharmacokinetics in mice; listed as 5 Isomer A
  Cmax (highest concentration of the active ingredient in the blood plasma): 15 µg/mL
  t/2 (half-life period of excretion): 69.3 h
[1]; [3]
  ED50: 3 mg/kg
Pharmacokinetics in rats; in vivo, read-out: t/2 (half-life period of excretion) (converted)
  half-life: 58.5 h
Pharmacokinetics in rats; plasma, blood plasma, read-out: Cmax (highest concentration of the active ingredient in the blood plasma)
  Cmax: 19.7 µg/mL
[2]; listed as 5 Isomer A
  Antituberculotic action, MIC (minimum inhibitory concentration): 0.2 mg/L

## COC1C=COC2(C)Oc3c(C)c(O)c4c(O)c(c(C=NN5CC6CCCCN6CC5C)c(O)c4c3C2=O)NC(=O)C(C)=CC=CC(C)C(O)C(C)C(O)C(C)C(OC(C)=O)C1C (single isomer, unassigned) [Example 5 Isomer C, hydrazone of 3-formylrifamycin SV with 3-amino-2-methylperhydro-1H-pyrido[1,2-a]pyrazine]
Pharmacokinetics in mice; listed as 5 Isomer C
  Cmax (highest concentration of the active ingredient in the blood plasma): 23.7 µg/mL
  t/2 (half-life period of excretion): 15 h
[1]; in vivo, mice, p.o., listed as 5 Isomer C
  Antituberculotic action, ED50: 3 mg/kg
[2]; listed as 5 Isomer C
  Antituberculotic action, MIC (minimum inhibitory concentration): 0.06 mg/L

## COC1C=COC2(C)Oc3c(C)c(O)c4c(O)c(c(C=NN5CC6CCCCN6CC5C)c(O)c4c3C2=O)NC(=O)C(C)=CC=CC(C)C(O)C(C)C(O)C(C)C(OC(C)=O)C1C (single isomer, unassigned) [Example 5 Isomer D, hydrazone of 3-formylrifamycin SV with 3-amino-2-methylperhydro-1H-pyrido[1,2-a]pyrazine]
Pharmacokinetics in mice; listed as 5 Isomer D
  Cmax (highest concentration of the active ingredient in the blood plasma): 33.6 µg/mL
  t/2 (half-life period of excretion): 25.1 h
[1]; in vivo, mice, p.o., listed as 5 Isomer D
  Antituberculotic action, ED50: 3 mg/kg
[2]; listed as 5 Isomer D
  Antituberculotic action, MIC (minimum inhibitory concentration): 0.06 mg/L

## CO[C@H]1/C=C/O[C@@]2(C)Oc3c(C)c(O)c4c(O)c(c(C=NN5CCN6C(CCC7CCCCC76)C5)c(O)c4c3C2=O)NC(=O)/C(C)=C\C=C\[C@H](C)[C@H](O)[C@@H](C)[C@@H](O)[C@@H](C)[C@H](OC(C)=O)[C@@H]1C (single isomer, unassigned) [Example 6 Isomer A, hydrazone of 3-formylrifamycin SV with 3-aminoperhydro-1H-pyrazino[1,2-a]quinoline]
Pharmacokinetics in mice; in vivo
  Cmax: 56.3 µg/mL
  half-life: 33.4 h
[2]; listed as 6 Isomer A
  Antituberculotic action, MIC (minimum inhibitory concentration): 0.03 mg/L

## CO[C@H]1/C=C/O[C@@]2(C)Oc3c(C)c(O)c4c(O)c(c(C=NN5CCN6C(CCC7CCCCC76)C5)c(O)c4c3C2=O)NC(=O)/C(C)=C\C=C\[C@H](C)[C@H](O)[C@@H](C)[C@@H](O)[C@@H](C)[C@H](OC(C)=O)[C@@H]1C (single isomer, unassigned) [Example 6 Isomer B, hydrazone of 3-formylrifamycin SV with 3-aminoperhydro-1H-pyrazino[1,2-a]quinoline]
Pharmacokinetics in mice
  t/2 (half-life period of excretion): 40.9 h
  Cmax (highest concentration of the active ingredient in the blood plasma): 34 µg/mL
[2]; listed as 6 Isomer B
  Antituberculotic action, MIC (minimum inhibitory concentration): 0.007 mg/L

## CO[C@H]1/C=C/O[C@@]2(C)Oc3c(C)c(O)c4c(O)c(c(C=NN5CCN6C(C)CCCC6C5)c(O)c4c3C2=O)NC(=O)/C(C)=C\C=C\[C@H](C)[C@H](O)[C@@H](C)[C@@H](O)[C@@H](C)[C@H](OC(C)=O)[C@@H]1C (some centres unmarked) [Example 3, hydrazone of 3-formylrifamycin SV with 3-amino-8-methylperhydro-1H-pyrido[1,2-a]pyrazine]
Pharmacokinetics in mice; in vivo
  half-life: 14 h
Pharmacokinetics in mice; plasma
  Cmax: 22.6 µg/mL
[1]; read-out: Antituberculotic action, ED50, in vivo, mice, p.o.
  ED50: 1 mg/kg
[2]
  MIC: 0.4 mg/L (≈ 0.456 µM)

## CO[C@H]1/C=C/O[C@@]2(C)Oc3c(C)c(O)c4c(O)c(c(C=NN5CCN6c7ccccc7CCC6C5)c(O)c4c3C2=O)NC(=O)/C(C)=C\C=C\[C@H](C)[C@H](O)[C@@H](C)[C@@H](O)[C@@H](C)[C@H](OC(C)=O)[C@@H]1C (some centres unmarked) [Example 7, hydrazone of 3-formylrifamycin SV with 3-amino-2,3,4,4a,5,6-hexahydro-1H-pyrazino[1,2-a]quinoline]
Pharmacokinetics in mice; in vivo
  half-life: 32.2 h
Pharmacokinetics in mice; plasma
  Cmax: 24 µg/mL
[1]; [3]
  ED50: 4.5 mg/kg
[2]
  MIC: 0.06 mg/L (≈ 0.0659 µM)

## CO[C@H]1/C=C/O[C@@]2(C)Oc3c(C)c(O)c4c(O)c(c(C=NN5CCN6CCSCC6C5)c(O)c4c3C2=O)NC(=O)/C(C)=C\C=C\[C@H](C)[C@H](O)[C@@H](C)[C@@H](O)[C@@H](C)[C@H](OC(C)=O)[C@@H]1C (some centres unmarked) [Example 8, hydrazone of 3-formylrifamycin SV with 6-aminoperhydropyrazolo[2,1-c]-p-thiazine]
Pharmacokinetics in mice; in vivo
  half-life: 8.9 h
Pharmacokinetics in mice; plasma
  Cmax: 72 µg/mL
[1]; [3]
  ED50: 8 mg/kg
[2]
  MIC: 0.2 mg/L (≈ 0.227 µM)

## COC1C=COC2(C)Oc3c(C)c(O)c4c(O)c(c(C=NN5CCN6CCN(C)CC6C5)c(O)c4c3C2=O)NC(=O)C(C)=CC=CC(C)C(O)C(C)C(O)C(C)C(OC(C)=O)C1C (centres unmarked) [Example 9, hydrazone of 3-formylrifamycin SV with 3-amino-6-methylperhydro-1H-pyrazino[1,2-a]pyrazine]
[2]
  Antituberculotic action, MIC (minimum inhibitory concentration): 0.1 mg/L
